According to patent publication US20230026163A1, “ANTICANCER COMPOUND AND MEDICAL USE THEREOF” (ASCENTAWITS PHARMACEUTICALS, LTD., priority 2019, published 2023):
Read-outs that look alike come from different tables or passages of the source. Each block holds one compound with its values, some of them ahead of it.

What was measured:
H460 cell line = assay: Hypoxia-dependent cytotoxicity experiment (2 hours exposure, air or N2, CTG); format: cell-based; conditions: Homo sapiens, then 3 days
Method: To determine the effect of the compounds of the present disclosure on cancer cell proliferation, these compounds were tested for cancer cell anti-proliferative activity in a porous CTG-based assay. Cell growth was compared in the present (treatment groups) and the absence of the test compound. 10,000 cells/well/495 μL of medium was used to test the following cell line, a human tumor cell line of H460 non-small cell lung cancer. The cells were seeded on glass-inserts located in each well of 24-well plates with a density and medium as specified above. 24 hours later, the plates were divided into 2 groups, hypoxia (using N2) group and air group. TH-302 at the concentrations from 100, 10, 0.1 to 0.01 μM, and the test compounds at the concentrations from 10, 1, 0.1, 0.01, 0.001 to 0.0001 were added to each well (500 μL volume) of the treatment groups. The final DMSO concentration in each well was lower than or equal to 1%. The cells in the hypoxia group were incubated for 2 hours in an ELECTROTEK hypoxia workstation. The cells in the air group were incubated for 2 hours in a standard culture incubator. 2 hours later, the test compounds were removed from each well. The cells were washed with 500 μL of medium and incubated in 500 μL of fresh medium for 3 days. 3 days later, 200 μL of medium per well was discarded. 60 μL of CTG was added to the wells, and the plates were placed at room temperature for 15 minutes in the dark. 100 μL of medium from each well of the 24-well plates was transferred to 96-well plates. The chemiluminescence signal values were read with an M5 full-band multi-mode-function microplate reader, and integration=750 ms. The compounds of control 1 and control 2 were used as controls.

[1] = test system: H460 non-small cell lung cancer; assay: Cytotoxicity test of human tumor cell line in vitro (CTG, 72 hours); format: cell-based; conditions: Homo sapiens, NCI-H460; H460, 72 hours exposure
Method: IC50 values were obtained by the following methods. The cancer cells were exposed to various concentrations of compounds for 72 hours. Following by washing steps, fresh medium was added to allow the growth of the cancer cells. The cancer cells were stained to obtain cell viability. Then, comparisons were made with the medium-only control.
Specifically, the exponentially growing cells were seeded in 96-well plates at a density of 2×10^3 cells/well, and 100 μL/well. The cells were incubated for 24 hours at 37° C., in 5% CO2, in 95% air, and 100% relative humidity. Next, 99 μL of culture medium was added. The compounds were dissolved in 100% DMSO at 200 times the desired final test concentration. Upon addition of compounds, the compounds were further diluted to 4 times the desired final concentration with a complete medium. Aliquots of 1 μL of compounds at specific concentration were added to the micro-wells containing 199 μL of medium to obtain the final compound concentrations as reported. After the compounds were added, the plates were incubated for an addition 72 hours at 37° C., in 5% CO2, in 95% air, and 100% relative humidity.
The plates to be test containing the cells were equilibrated at room temperature for 30 minutes, and 100 μL of medium per well was discarded. 100 μL of CTG reagent (CelltiterGlo Kit) was added to each well. The plates were placed in a fast-shaker to shake for 2 minutes, and placed at room temperature for 30 minutes in the dark. Chemoluminescence signal values were read with Envision instrument.

P-glycoprotein [2] = target: T1, P-glycoprotein (Homo sapiens, UniProt P08183); assay: in vitro; conditions: MDCK-MDR1
Method: MDCKII-MDR1 cells were incubated in cell culture flasks. The incubator was set at 37° C., 5% CO2, and a guaranteed relative humidity of 95%. When the cells reached 70 to 90% confluence, the cells may be seeded to transwells.
50 μL of the cell suspensions were added to the apical chambers of each well of the 96-well transwells at a final seeding density of 5.45×10^5 cells/cm^2.
MDCKII-MDR1 cells may be fully confluent and differentiated after 4 to 8 days of incubation. At this time, the cells may be applied to penetration test. The monolayer membrane resistance was measured with a resistance meter (Millipore), and the resistance per well was recorded. After the test, the transwells were returned to the incubator.
The transwells with MDCKII-MDR1 cells were taken from the incubator. The cell monolayers were rinsed twice with buffer and incubated at 37° C. for 30 minutes.
The rate of the compounds from an apical end to a basolateral end was determined. 75 μL of the buffer containing the test sample was added to each well of the apical chambers (apical end), and 235 μL of the buffer was added to each well of the basolateral chambers (basolateral end).
The rate of the compounds transporting from the basolateral end to the apical end was determined. 75 μL of the buffer was added to the apical chambers (apical end), and 235 μL of the buffer containing the test sample was added to the basolateral chamber (basolateral end).
After the apical chambers and the basolateral chambers were combined respectively, the transwells were incubated at 37° C. for 2 hours.
After incubation, 50 μL of the sample from each well of the apical chambers and the basolateral chambers of the transwells was transferred to new sample tubes respectively. 200 μL of acetonitrile (100 nM of Alprazolam, 200 nM of Labetalol, 200 nM of caffeine, and 2 μM of Ketoprofen) as an internal standard was added to the sample tubes, vortexed for 10 minutes, and centrifuged at 3220 g for 30 minutes. 100 μL of the supernatant was taken and diluted with an equal volume of water for LC-MS/MS analysis. Each sample was incubated in triplicate.
Peak-areas were calculated from ion chromatography results. The apparent permeability coefficient (Papp, unit: cm/s×10-6) of the compounds was calculated by the following formula.
In the formula, VA was the volume of the solution at the acceptor end (Ap→B1 was 0.235 mL, and B1→Ap was 0.075 mL), Area was the membrane area (0.143 cm^2) of 96-well transwell, time was the incubation time (unit: s), [drug]acceptor referred to the drug concentration of the acceptor end after incubation, and [drug]initial,donor referred to the initial concentration of the donor end before incubation.
Efflux ratio was calculated with the following formula.
In the formula, Papp(B_A) was the apparent permeability coefficient from the basolateral end to the apical end, and Papp(A-B) was the apparent permeability coefficient from the apical end to the basolateral end.
The recovery rate was calculated with the following formula.
In the formula, VA was the solution volume of the acceptor end (unit: mL), VD was the solution volume of the donor end (unit: mL), [drug]acceptor referred to the drug concentration of the acceptor end after incubation, and [drug]initial,donor referred to the initial concentration of the donor end before incubation.

P-glycoprotein [3] = target: T1, P-glycoprotein; parameters: expressed in transfected cells; host or cells: MDCKII-MDR1 (MDCKII canine kidney cells); conditions: cited from earlier work
[4] = Maximal tolerance dose (MTD) experiment; format: in vivo, ICR mice; conditions: for Effect on animal body weight: after intravenous injection in mice; for Gross necropsy of the surviving animals: after the recovery period; for MTD at 5 days: both sexes, ICR, mouse, in vivo, iv; for Average food intake vs normal mice: each administration group
Method: 18 ICR mice, 9 females/9 males, were selected for the experiment. According to gender and body weight, the mice were randomly divided into a 10 mg/kg group, a 20 mg/kg group, and a 40 mg/kg group of the S-configuration of compound 01, with 3 females/3 males in each group. By intravenous injection, the 10 mg/kg group of the S-configuration of compound 01 was administered with 1 mg/ml of the administration concentration, 10 ml/kg of the administration volume, and 10 mg/kg of the dose. The 20 mg/kg group containing the S-configuration of compound 01 was administered with 2 mg/ml of the administration concentration, 10 ml/kg of the administration volume, and 20 mg/kg of the dose. The 40 mg/kg group containing the S-configuration of compound 01 was administered with 4 mg/ml of the administration concentration, 10 ml/kg of the administration volume, and 40 mg/kg of the dose. The mice was administered once a day for 5 consecutive days, and recovered for 2 weeks after the last administration. The mice were closely observed for 2 hours after administration of the daily drug. The mice were observed twice a day in the morning and afternoon on the non-administration day. During the experiment, body weight and food intake were measured twice a week. The dead animals and all the survival animals were subjected to gross necropsy on the 14th day after the last administration. The diseased organic were grossly necropsied for histopathological examination.
18 ICR mice, 9 females/9 males, were selected for the experiment. According to gender and body weight, the mice were randomly divided into a 10 mg/kg group, a 20 mg/kg group, and a 40 mg/kg group of the R-configuration of compound 01, with 3 females/3 males in each group. By intravenous injection, the 10 mg/kg group of the R-configuration of compound 01 was administered with 1 mg/ml of the administration concentration, 10 ml/kg of the administration volume, and 10 mg/kg of the dose. The 20 mg/kg group of the R-configuration of compound 01 was administered with 2 mg/ml of the administration concentration, 10 ml/kg of the administration volume, and 20 mg/kg of the dose. The 40 mg/kg group of the R-configuration of compound 01 was administered with 4 mg/ml of the administration concentration, 10 ml/kg of the administration volume, and 40 mg/kg of the dose. The mice was administered once a day for 5 consecutive days, and recovered for 1 week after the last administration. […] To find the maximum tolerated dose, a second cycle of dosing was required. The doses were adjusted and administered for 5 consecutive days.
The mice were closely observed for 2 hours after administration of the daily drug. The mice were observed twice a day in the morning and afternoon on the non-administration day. During the experiment, body weight and food intake were measured twice a week. The dead animals and all the survival animals were subjected to gross necropsy on the 14th day after the last administration. The diseased organic were grossly necropsied for histopathological examination.

[5] = NCI-H460, H460, air, read-out: Normoxia: IC50
[6] = NCI-H460, H460, hypoxia (N2), read-out: N2: IC50
[7] = ICR mice, intravenous injection, once a day for 5 consecutive days, read-out: Maximum tolerated dose / MTD result

T1 sequence (P08183 whole entry): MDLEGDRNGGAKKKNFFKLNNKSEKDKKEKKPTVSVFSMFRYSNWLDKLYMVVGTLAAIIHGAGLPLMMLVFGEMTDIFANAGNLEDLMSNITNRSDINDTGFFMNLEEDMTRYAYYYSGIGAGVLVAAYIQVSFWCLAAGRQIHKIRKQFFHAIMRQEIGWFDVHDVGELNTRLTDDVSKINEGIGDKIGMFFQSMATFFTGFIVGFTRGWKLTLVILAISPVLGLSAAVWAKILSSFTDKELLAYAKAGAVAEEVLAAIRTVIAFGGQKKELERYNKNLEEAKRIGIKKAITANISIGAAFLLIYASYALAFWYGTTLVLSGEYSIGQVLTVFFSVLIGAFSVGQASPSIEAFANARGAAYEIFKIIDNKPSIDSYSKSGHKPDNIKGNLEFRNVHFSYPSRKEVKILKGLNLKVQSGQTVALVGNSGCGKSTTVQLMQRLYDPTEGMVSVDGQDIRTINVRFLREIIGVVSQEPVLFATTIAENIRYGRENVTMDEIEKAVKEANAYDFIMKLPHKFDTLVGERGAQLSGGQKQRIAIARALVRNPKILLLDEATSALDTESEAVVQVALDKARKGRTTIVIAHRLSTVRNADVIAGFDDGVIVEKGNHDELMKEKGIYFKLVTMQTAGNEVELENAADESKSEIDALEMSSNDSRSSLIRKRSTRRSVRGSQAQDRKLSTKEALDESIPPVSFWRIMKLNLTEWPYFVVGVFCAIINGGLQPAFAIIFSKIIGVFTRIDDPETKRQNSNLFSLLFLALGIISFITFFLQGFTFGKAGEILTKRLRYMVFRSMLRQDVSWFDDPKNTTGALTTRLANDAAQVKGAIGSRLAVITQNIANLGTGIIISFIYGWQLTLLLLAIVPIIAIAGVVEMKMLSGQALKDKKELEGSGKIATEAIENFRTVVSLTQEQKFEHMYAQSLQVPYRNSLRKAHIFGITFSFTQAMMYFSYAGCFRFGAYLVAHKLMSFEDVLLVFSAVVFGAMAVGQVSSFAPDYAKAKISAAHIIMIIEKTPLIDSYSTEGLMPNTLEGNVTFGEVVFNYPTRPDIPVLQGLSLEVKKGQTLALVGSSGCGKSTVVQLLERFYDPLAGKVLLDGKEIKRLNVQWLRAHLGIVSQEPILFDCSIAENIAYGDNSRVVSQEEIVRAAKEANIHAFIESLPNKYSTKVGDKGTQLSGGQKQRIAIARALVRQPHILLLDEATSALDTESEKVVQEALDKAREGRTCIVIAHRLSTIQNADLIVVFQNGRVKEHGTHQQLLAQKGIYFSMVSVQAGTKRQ

SMILES: O=[N+]([O-])c1c(COP(=O)(N2CC2)N2CC2)ccc2ccccc12 [Compound 03]
- IC50 (H460 cell line; [5]): 10000 nM
- IC50 (H460 cell line; [6]): 634 nM
- IC50 [1]: 806 nM

SMILES: CC(OP(=O)(N1CC1)N1CC1)c1ccc([N+](=O)[O-])c2ccccc12 (centres unmarked) [Compound 26]
- IC50 (H460 cell line; [5]): 37.6 nM
- IC50 (H460 cell line; [6]): < 9.8 nM
- IC50 [1]: 92 nM

SMILES: O=[N+]([O-])c1ccc(C(OP(=O)(N2CC2)N2CC2)C(F)(F)F)cc1 (centres unmarked) [Control 2, reference compound]
- IC50 (H460 cell line; [5]): 15600 nM
- IC50 (H460 cell line; [6]): 7080 nM
- IC50 [1]: 659 nM

- Papp (A-B) (P-glycoprotein [2]): 21.94 10^−6, cm/s
- Papp (B-A) (P-glycoprotein [2]): 18.69 10^−6, cm/s
- Papp A→B at 2 h (P-glycoprotein [2]; dog): 2.24 ×10⁻⁶ cm/s
- Papp B→A at 2 h (P-glycoprotein [2]; dog): 24.1 ×10⁻⁶ cm/s
SMILES: Cc1ccc(NC(=O)c2ccc(CN3CCN(C)CC3)cc2)cc1Nc1nccc(-c2cccnc2)n1 [Imatinib, reference compound]
- P-gp substrate (known / earlier data and literature) (P-glycoprotein [3]): known P-gp substrates

SMILES: O=[N+]([O-])c1ccc([C@@H](OP(=O)(N2CC2)N2CC2)C(F)(F)F)c2ccccc12 [R-configuration of compound 01]
- Animal death after the first 5 consecutive days ([4]; 10, 20 and 40 mg/kg groups, first cycle): no animal death
- Animals died ([4]; 10/80 mg/kg group (1st cycle 10 mg/kg, 2nd cycle 80 mg/kg)): 1 of the 6
- Animals died ([4]; 20/60 mg/ml group): 3 of the 6
- Animals died ([4]; 40/40 mg/kg group): 1 of the 6
- Maximum tolerated dose / MTD result ([4]; ICR mice, intravenous injection, once a day for 5 consecutive days): 20 to 40 mg/kg
- Effect on animal body weight [4]: increased slowly
- Gross necropsy of the surviving animals [4]: on obvious gross pathological changes
- MTD at 5 days ([4]; ICR mice, intravenous injection, first cycle, read-out: Maximum tolerated dose): > 40 mg/kg
- MTD at 5 days [4, 7]: 20 to 40 mg/kg
- MTD at 5 days ([4]; ICR mice, intravenous injection, second cycle, read-out: Maximum tolerated dose): < 40 mg/kg
- Average food intake vs normal mice [4]: no significant difference
- Clinical symptoms after administration ([4]; first cycle, 10/80 mg/kg group): in good condition
- Clinical symptoms after administration ([4]; first cycle, 20/60 mg/kg group): unsteady gait
- Clinical symptoms after administration ([4]; first cycle, 40/40 mg/kg): intermittent gait unsteady, accelerated breathing, and increased spontaneous activity
- Clinical symptoms after administration ([4]; second cycle, 10/80 mg/kg): abnormal gait, decreased muscle tension, decreased spontaneous activity, irregular breathing, unsteady gait, accelerated breathing, erect hair, spasm, deepened breathing, prone, and arched back
- Clinical symptoms after administration ([4]; second cycle, 20/60 mg/kg): intermittent deepened breathing, decreased spontaneous activity, unsteady gait, irregular breathing, increased spontaneous activity, accelerated breathing, unsteady gait, and prone
- Clinical symptoms after administration ([4]; second cycle, 40/40 mg/kg): intermittent unsteady gait, deepened breathing, accelerated breathing, increased spontaneous activity, and abnormal gait

SMILES: O=[N+]([O-])c1ccc([C@H](OP(=O)(N2CC2)N2CC2)C(F)(F)F)c2ccccc12 [S-configuration of compound 01]
- Clinical symptoms after administration ([4]; 10 mg/kg group and 20 mg/kg group): in good condition
- Clinical symptoms after administration ([4]; 40 mg/kg group): unsteady gait, deepened breathing, accelerated breathing, and decreased spontaneous activity
- Animals died ([4]; 40 mg/kg group, i.v., 5 consecutive days): 3 of the 6
- Effect on animal body weight [4]: increased slowly
- Gross necropsy of the surviving animals [4]: on obvious gross pathological changes
- MTD at 5 days [4, 7]: 20 mg/kg
- Average food intake vs normal mice [4]: no significant difference
